# Measured values reported in patent publication US20250179094A1, “TGF-B INHIBITOR COMPOUND AND USE THEREOF” (Medinno Pharmaceutical Technology (Zhuhai) Co., Ltd., priority 2022, published 2025).
# Target: human TGFβR1 (Homo sapiens (Human), UniProt P36897)
# Test: TGFβR1 kinase activity assay (ADP-Glo method)
# Format: biochemical
# Settings: ATP 5 uM, TGFβR1tide substrate, 60 minutes at room temperature
# Method: The principle of the activity assay was that TGFβR1 phosphorylates the substrate TGFβR1tide, consuming ATP in the process. […] The specific experimental steps were as follows. Compounds were diluted 4-fold in DMSO in a dilution plate, with the final starting concentration of the compounds being 10 μM, across 10 concentration gradient points. The compounds were then further diluted 50-fold into the kinase reaction buffer and incubated on a shaker for 20 minutes. Kinase was formulated with an enzyme reaction buffer. 2 μl kinase was added to each well of the reaction plate. 1 μl of the compound diluted in buffer was added to each well, and then the plate was sealed with a sealing membrane and centrifuged at 1000 g for 30 seconds, leaving it at room temperature for 10 minutes. Solutions of TGFβR1tide and ATP were prepared with the kinase reaction buffer, and 2 μL of the TGFβR1tide/ATP solution was added to the reaction plate. The plate was sealed with a sealing film and centrifuged at 1000 g for 30 seconds. It was allowed to react at room temperature for 60 minutes. Subsequently, 4 μL of ADP-Glo was transferred to a 384-well reaction plate and centrifuged at 1000 rpm/min for 1 minute, followed by incubation at 25° C. for 40 minutes. Then, 8 μL of Detection solution was transferred to the 384-well reaction plate and centrifuged at 1000 rpm/min for 1 minute, after which it was incubated at 25° C. for 40 minutes. The RLU (Relative Luminescence Unit) signal was read using a BMG microplate reader, which was used to characterize the degree of kinase activity.
# 3.1 The inhibition rate was calculated as follows: inhibition rate of compound (% inh)=100%−(compound−positive control)/(negative control−positive control)*100%.
# The IC50 (half inhibition concentration) of a compound was obtained using the following non-linear fitting equation, wherein data analysis was performed using Graphpad 7.0 software.
# X: log value of compound concentration; and Y: inhibition rate (% inhibition)
# human TGFβR1, sequence (P36897 34-503): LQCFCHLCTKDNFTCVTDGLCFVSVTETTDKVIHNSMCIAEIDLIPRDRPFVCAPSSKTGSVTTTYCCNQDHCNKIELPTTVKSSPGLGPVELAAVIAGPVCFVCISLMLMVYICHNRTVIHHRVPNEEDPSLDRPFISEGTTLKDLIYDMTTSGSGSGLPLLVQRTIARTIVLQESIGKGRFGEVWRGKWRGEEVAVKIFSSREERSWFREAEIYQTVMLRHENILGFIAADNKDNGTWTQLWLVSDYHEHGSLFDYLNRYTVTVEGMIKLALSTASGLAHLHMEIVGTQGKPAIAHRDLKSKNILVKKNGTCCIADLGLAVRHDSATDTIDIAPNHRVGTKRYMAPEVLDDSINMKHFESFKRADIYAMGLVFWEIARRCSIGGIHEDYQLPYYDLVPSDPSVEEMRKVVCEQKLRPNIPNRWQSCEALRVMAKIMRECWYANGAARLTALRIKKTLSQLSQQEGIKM
structure (smiles),measurement,value
"Cc1cccc(-c2nc3n(c2-c2ccnc(-c4nc5c([nH]4)CN(C)C5)c2)CCC3)n1 [Compound 3, 5-methyl-2-(4-(2-(6-methylpyridin-2-yl)-6,7-dihydro-5H-pyrrolo[1,2-a]imidazol-3-yl)pyridin-2-yl)-1,4,5,6-tetrahydropyrrolo[3,4-d]imidazole]",IC50,7.4 nM
"Cc1cccc(-c2nn3c(c2-c2ccnc(-c4nc5c([nH]4)CN(C(=O)N(C)C)C5)c2)CCC3)n1 [Compound 67, N,N-Dimethyl-2-(4-(2-(6-methylpyridin-2-yl)-5,6-dihydro-4H-pyrrolo[1,2-b]pyrazol-3-yl)pyridin-2-yl)-4,6-dihydropyrrolo[3,4-d]imidazole-5(1H)-carboxamide]",IC50,2 nM
"Cc1cccc(-c2nn(Cc3ccc(F)cc3)cc2-c2ccnc(-c3nc4c([nH]3)CN(S(C)(=O)=O)C4)c2)n1 [Compound 50, 2-[4-(1-(4-Fluorobenzyl)-3-(6-methylpyridin-2-yl)-1H-pyrazol-4-yl)pyridin-2-yl]-5-(methylsulfonyl)-1,4,5,6-tetrahydropyrrolo[3,4-d]imidazole]",IC50,2.2 nM
"Cc1cccc(-c2nc3n(c2-c2ccnc(-c4nc5c([nH]4)CN(C(=O)c4cnn(C)c4)C5)c2)CCC3)n1 [Compound 11, (1-Methyl-1H-pyrazol-4-yl)(2-(4-(2-(6-methylpyridin-2-yl)-6,7-dihydro-5H-pyrrolo[1,2-a]imidazol-3-yl)pyridin-2-yl)-4,6-dihydropyrrolo[3,4-d]imidazol-5(1H)-yl)ketone]",IC50,11.6 nM
CCS(=O)(=O)N1Cc2nc(-c3cc(-c4c(-c5cccc(C)n5)nn5c4CCC5)ccn3)[nH]c2C1 [Compound 68],IC50,8.1 nM
"Cc1cccc(-c2nn(C)cc2-c2ccnc(-c3nc4c([nH]3)CN(C(=O)N(C)C)C4)c2)n1 [Compound 58, N,N-Dimethyl-2-(4-(1-methyl-3-(6-methylpyridin-2-yl)-1H-pyrazol-4-yl)pyridin-2-yl)-4,6-dihydropyrrolo[3,4-d]imidazol-5(1H)-carboxamide]",IC50,1.8 nM
"Cc1cccc(-c2nn(CC3CC3)cc2-c2ccnc(-c3nc4c([nH]3)CN(S(C)(=O)=O)C4)c2)n1 [Compound 47, 2-[4-(1-(Cyclopropylmethyl)-3-(6-methylpyridin-2-yl)-1H-pyrazol-4-yl)pyridin-2-yl]-5-(methylsulfonyl)-1,4,5,6-tetrahydropyrrolo[3,4-d]imidazole]",IC50,3.4 nM
"CCN(C)C(=O)N1Cc2nc(-c3cc(-c4c(-c5cccc(C)n5)nc5n4CCC5)ccn3)[nH]c2C1 [Compound 32, N-Ethyl-N-methyl-2-(4-(2-(6-methylpyridin-2-yl)-6,7-dihydro-5H-pyrrolo[1,2-a]imidazol-3-yl)pyridin-2-yl)-4,6-dihydropyrrolo[3,4-d]imidazol-5(1H)-carboxamide]",IC50,2.3 nM
"Cc1cccc(-c2nc3n(c2-c2ccnc(-c4nc5c([nH]4)CN(C4CCC(O)CC4)C5)c2)CCC3)n1 (stereo not drawn) [Compound 25, 4-(2-(4-(2-(6-Methylpyridin-2-yl)-6,7-dihydro-5H-pyrrolo[1,2-a]imidazol-3-yl)pyridin-2-yl)-4,6-dihydropyrrolo[3,4-d]imidazol-5(1H)-yl)cyclohexan-1-ol]",IC50,25 nM
"CC(=O)N1Cc2nc(-c3cc(-c4c(-c5cccc(C)n5)nc5n4CCC5)ccn3)[nH]c2C1 [Compound 1, 1-(2-(4-(2-(6-methylpyridin-2-yl)-6,7-dihydro-5H-pyrrolo[1,2-a]imidazol-3-yl)pyridin-2-yl)-4,6-dihydropyrrolo[3,4-d]imidazol-5(1H)-yl)ethan-1-one]",IC50,21 nM
Cc1cccc(-c2n[nH]cc2-c2ccnc(-c3nc4c([nH]3)CNCC4)c2)n1 [Compound 76],IC50,13 nM
"Cc1cccc(-c2nn(Cc3cccnc3)cc2-c2ccnc(-c3nc4c([nH]3)CN(S(C)(=O)=O)C4)c2)n1 [Compound 54, 2-[4-(3-(6-Methylpyridin-2-yl)-1-(pyridin-3-ylmethyl)-1H-pyrazol-4-yl)pyridin-2-yl]-5-(methylsulfonyl)-1,4,5,6-tetrahydropyrrolo[3,4-d]imidazole]",IC50,1.4 nM
"Cc1cccc(-c2nn(C(C)C)cc2-c2ccnc(-c3nc4c([nH]3)CN(S(C)(=O)=O)C4)c2)n1 [Compound 46, 2-[4-(1-Isopropyl-3-(6-methylpyridin-2-yl)-1H-pyrazol-4-yl)pyridin-2-yl]-5-(methylsulfonyl)-1,4,5,6-tetrahydropyrrolo[3,4-d]imidazole]",IC50,1.7 nM
"Cc1cccc(-c2nc3n(c2-c2ccnc(-c4nc5c([nH]4)CN(S(C)(=O)=O)CC5)c2)CCC3)n1 [Compound 63, 2-(4-(2-(6-methylpyridin-2-yl)-6,7-dihydro-5H-pyrrolo[1,2-a]imidazol-3-yl)pyridin-2-yl)-5-(methylsulfonyl)-4,5,6,7-tetrahydro-3H-imidazolo[4,5-c]pyridine]",IC50,1.6 nM
"Cc1cccc(-c2nn(CC(C)O)cc2-c2ccnc(-c3nc4c([nH]3)CNC4)c2)n1 (stereo not drawn) [Compound 44, 3-(3-(6-Methylpyridin-2-yl)-4-(2-(1,4,5,6-tetrahydropyrrolo[3,4-d]imidazol-2-yl)pyridin-4-yl)-1H-pyrazol-1-yl)propan-2-ol]",IC50,6.2 nM
"Cc1cccc(-c2nc3n(c2-c2ccnc(-c4nc5c([nH]4)CNCC5)c2)CCC3)n1 [Compound 75, 2-(4-(2-(6-Methylpyridin-2-yl)-6,7-dihydro-5H-pyrrolo[1,2-a]imidazol-3-yl)pyridin-2-yl)-4,5,6,7-tetrahydro-3H-imidazolo[4,5-c]pyridine]",IC50,5.6 nM
"Cc1cccc(-c2nc3n(c2-c2ccnc(-c4nc5c([nH]4)CN(CC(C)O)C5)c2)CCC3)n1 (stereo not drawn) [Compound 12, 1-(2-(4-(2-(6-Methylpyridin-2-yl)-6,7-dihydro-5H-pyrrolo[1,2-a]imidazol-3-yl)pyridin-2-yl)-4,6-dihydropyrrolo[3,4-d]imidazol-5(1H)-yl)propan-2-ol]",IC50,4.3 nM
"CCS(=O)(=O)N1Cc2nc(-c3cc(-c4cn(C)nc4-c4cccc(C)n4)ccn3)[nH]c2C1 [Compound 52, 5-(Ethylsulfonyl)-2-[4-(1-methyl-3-(6-methylpyridin-2-yl)-1H-pyrazol-4-yl)pyridin-2-yl]-1,4,5,6-tetrahydropyrrolo[3,4-d]imidazole]",IC50,2.1 nM
